Results: patent publication US12065427B2, “Heterocyclic compounds capable of activating STING” (BOEHRINGER INGELHEIM INTERNATIONAL GMBH, priority 2021, dated 2024)
Values after ≈ are worked out from the molar mass of the structure shown.

Columns and labels:
STING H232R-variant = molecular target: T1, STING H232R-variant (Homo sapiens, UniProt Q86WV6, H232R); test: IRF-inducible SEAP reporter assay in THP1-Blue ISG cells, STING H232R-variant; type: cell-based; conditions: STING H232R-variant (WT), 24 hours incubation
T1 construct: expressed in transfected cells; host or cells: THP1-Blue ISG hSTING KO clone, retroviral MSCV-ires-GFP-Blasti
Description: (§1) In Vitro Cytokine Induction Measured Via Activation of an Interferon Regulatory Factor Inducible Reporter Gene
(§2) Activation of the STING protein expressed in cell lines results in an increase of interferon production. By the stable integration of an interferon regulatory factor (IRF)-inducible SEAP gene (secreted embryonic alkaline phosphatase) reporter construct the functional interferon signaling pathway can be monitored. Using Invivogen's THP1-Blue™ ISG colorimetric enzyme assay and a suitable optical density (OD) reader the activity of SEAP can be detected and quantified. This technique could be used to characterize pharmacological modification of the STING pathway.
(§3) Several single nucleotide polymorphisms have been identified in the human STING gene. To determine the activity of the above described compounds, THP1-Blue™ ISG reporter cell lines expressing the different human STING variants have been generated. To do so, the endogenous human STING was first deleted using the CRISPR/CAS9 system: THP1-Blue ISG cells were electroporated with ALL-IN-ONE CRISPR plasmids targeting the STING gene (purchased from Sigma encoding the gRNA and GFP as a reporter gene for successful transduction). GFP positive cells then were sorted 24 h post transfection and expanded. Cells were then dispersed in semisolid methocel medium to allow single cell clone isolations. Clones were then screened for cGAMP responsiveness using the Quanti-Blue™ reporter assay. Non-responsive clones were subsequently analysed for STING loss by western blotting and sequencing of the STING locus.
(§4) For the overexpression of the human STING variants, a confirmed THP1-Blue™ ISG hSTING KO clone was transduced with individual retroviral plasmids (MSCV-ires-GFP-Blasti) encoding the allelic variants of hSTING (WT (H232R), HAQ, R232H, AQ and R293Q). Transduced cells were sorted for different levels of GFP fluorescence and STING allele expression was analysed by western blot.
(§5) Measurements of SEAP activity were performed in THP1-Blue™ ISG cells stably expressing the different human STING isoforms and the IRF-inducible SEAP reporter construct. Cells were cultivated in RPMI1640 medium with 10% fetal calf serum, 50 μg/ml Penicillin-Streptomycin, 100 μg/ml Zeocin, and 100 μg/ml Normocin in a 37°, 95% humidity and 5% CO2 incubator.
(§6) In preparation for the assay, the cells were distributed into the assay plates with a density of 10000 cells/15 μL per well. Compounds were prepared by an 8 point serial dilution in 50% aqueous DMSO and a final dilution step into medium to ensure a final DMSO concentration of 0.5% in the assay. 5 μL of diluted compounds were added to the plates, followed by a 24 hours incubation at 37° C.
(§7) At the day of the assay, 75 μl per well of Quanti-Blue™ reagent was added to all wells of the plate and the plate was incubated another 30 minutes at 37° C. The OD at 620 nm was measured on the EnVision reader (PerkinElmer).
(§8) EC50 values and Hill slopes were derived from 8-point four parametric non-linear curve fittings with the Megalab software (Boehringer Ingelheim) using the OD at 620 nm.
(§9) Data of EC50 values can be found in tables 2a-2e.
Data of EC50 values on STING H232R-variant can be found in table 2b: […]

in vitro = conditions: human, Caco-2, pH 7.4
[1] = Solubility measurements (HTS) at pH 6.8; type: physicochemical; conditions: kinetic from dmso stock; aqueous McIlvaine buffer pH 6.8, 24 h at room temperature, from 10 mM DMSO stock; read-out: Soblubility
Experimental: Aqueous solubilities were determined from 10 mM stock solutions of the compounds in DMSO diluted to a final concentration of 250 μM with aqueous McIlvaine buffer at pH 6.8, or with acetonitrile/water (1:1) as a reference. Samples were shaken for 24 h at room temperature in 96-well plates (Whatman Uniplate® 96 wells, 750 μL, polypropylene, round bottom). The plate was then centrifuged at 3,000 rpm for 2 min. 250 μL of each sample were transferred to a Millipore MultiScreenHTS filter plate with a polycarbonate membrane, pore size 0.45 μm. Filtrates were collected by centrifugation at 3,000 rpm for 2 min. The dissolved concentrations were determined by UPLC/UV (Ultra-Performance Liquid Chromatography/ultraviolet) on a Waters ACQUITY UPLC® SQD system equipped with a Waters ACQUITY UPLC® BEH 2.1×50 mm C18 column, particle size 1.7 μm, using a short gradient with water/0.1% formic acid as solvent A and acetonitrile/0.1% formic acid as solvent B (5 to 95% B with 1.7 min total cycle time). Compounds signals were measured with a photodiode array UV detector operated at 254 nm. Solubilities were determined with a one point calibration by comparing peak areas relative to the reference standard using Waters Empower software.

STING HAQ-variant = molecular target: T2, STING HAQ-variant (Homo sapiens, UniProt Q86WV6, G230A/H232R/R293Q/R71H); test: IRF-inducible SEAP reporter assay in THP1-Blue ISG cells, STING HAQ-variant; type: cell-based; conditions: STING HAQ-variant (parental or re-introduced), 24 hours incubation
T2 construct: parental THP1-Blue™ ISG cell lines (which express endogenously HAQ); host or cells: THP1-Blue ISG (parental, endogenous HAQ) or STING-KO clone re-transduced with HAQ (MSCV-ires-GFP-Blasti)
Summary of the method: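 THP1-Blue ISG cells expressing STING HAQ, either endogenously (parental) or re-introduced after CRISPR knockout, were seeded at 10000 cells/well. They received 8-point compound dilutions (0.5% DMSO final) for 24 hours at 37° C. IRF-driven SEAP was read with Quanti-Blue at OD 620 nm after 30 minutes, and EC50 came from four-parameter fits.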

STING R232H-variant = molecular target: T3, STING R232H-variant (Homo sapiens, UniProt Q86WV6); test: IRF-inducible SEAP reporter assay in THP1-Blue ISG cells, STING R232H-variant; type: cell-based; conditions: 24 hours incubation
T3 construct: expressed in transfected cells; host or cells: THP1-Blue ISG hSTING KO clone, retroviral MSCV-ires-GFP-Blasti
Description: as §1, §2, §3, §4, §5, §6, §7, §8, §9
Data of EC50 values on STING R232H-variant can be found in table 2c: […]

STING R293Q-variant = molecular target: T4, STING R293Q-variant (Homo sapiens, UniProt Q86WV6, H232R/R293Q); test: IRF-inducible SEAP reporter assay in THP1-Blue ISG cells, STING R293Q-variant; type: cell-based; conditions: 24 hours incubation
T4 construct: expressed in transfected cells; host or cells: THP1-Blue ISG hSTING KO clone, retroviral MSCV-ires-GFP-Blasti
Description: as §1, §2, §3, §4, §5, §6, §7, §8, §9
Data of EC50 values on STING R293Q-variant can be found in table 2d: […]

STING AQ-variant = molecular target: T5, STING AQ-variant (Homo sapiens, UniProt Q86WV6, G230A/H232R/R293Q); test: IRF-inducible SEAP reporter assay in THP1-Blue ISG cells, STING AQ-variant; type: cell-based; conditions: 24 hours incubation
T5 construct: expressed in transfected cells; host or cells: THP1-Blue ISG hSTING KO clone, retroviral MSCV-ires-GFP-Blasti
Description: as §1, §2, §3, §4, §5, §6, §7, §8, §9
Data of EC50 values on STING AQ-variant can be found in table 2e: […]

[2] = test system: Human STING (hSTING, residues 155-341); test: Interaction with hSTING as determined by Differential Scanning Fluorimetry (DSF); type: binding; conditions: 100 μM test compounds, 5 μM target protein
Summary of the method: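 Thermal shift of hSTING (residues 155-341, 5 μM) with test compounds at 100 μM in 20 mM Tris, 150 mM NaCl, pH 7.5, using 5× SYPRO Orange. Ramped 25 to 95 °C at 0.5 °C per cycle (15 s/cycle) by real-time PCR fluorescence. Tm from duplicate melting curves, averaged.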

T1 sequence (Q86WV6 whole entry H232R): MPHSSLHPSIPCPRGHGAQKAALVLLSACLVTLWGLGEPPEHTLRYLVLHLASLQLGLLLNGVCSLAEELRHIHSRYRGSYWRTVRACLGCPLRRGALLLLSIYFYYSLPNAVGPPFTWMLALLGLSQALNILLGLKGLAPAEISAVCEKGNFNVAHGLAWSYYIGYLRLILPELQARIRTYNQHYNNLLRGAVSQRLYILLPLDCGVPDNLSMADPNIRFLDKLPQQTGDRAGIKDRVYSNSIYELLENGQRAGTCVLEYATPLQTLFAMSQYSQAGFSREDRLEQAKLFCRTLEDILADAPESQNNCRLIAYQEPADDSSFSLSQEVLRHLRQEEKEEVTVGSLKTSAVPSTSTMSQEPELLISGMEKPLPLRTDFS
T2 sequence (Q86WV6 whole entry R71H/G230A/H232R/R293Q): as the sequence (Q86WV6 whole entry H232R) above, with R71H, G230A, R293Q counted along it
T3 sequence (Q86WV6 whole entry, stated change not applied): as the sequence (Q86WV6 whole entry H232R) above, with R232H counted along it
T4 sequence (Q86WV6 whole entry H232R/R293Q): as the sequence (Q86WV6 whole entry H232R) above, with R293Q counted along it
T5 sequence (Q86WV6 whole entry G230A/H232R/R293Q): as the sequence (Q86WV6 whole entry H232R) above, with G230A, R293Q counted along it

Row | SMILES | EC50 (STING H232R-variant) | Papp A→B at 10 μM (in vitro) | efflux ratio at 10 μM (in vitro) | solubility kinetic at 24 h [1] | EC50 (STING HAQ-variant) | EC50 (STING R232H-variant) | EC50 (STING R293Q-variant) | EC50 (STING AQ-variant) | thermal shift (ΔTm) [2]
1 | Cc1cc(C)c2c(c1)c(-c1cccc3nn(C)cc13)nn2-c1ccc(N2CC3C(C2)C3C(=O)O)nc1 (stereo not drawn) [compound 69, 3-(5-{2′,5,7-trimethyl-1H,2′H-[3,4′-biindazol]-1-yl}pyridin-2-yl)-3-azabicy-clo[3.1.0]hexane-6-car-boxylic acid] | 300 nM | 14 ×10⁻⁶ cm/s | 1 | 70 µg/mL (≈ 146 µM) | 1400 nM | 300 nM | 700 nM | 700 nM | 
2 | Cc1cc(C)c2c(c1)c(-c1cccc3nn(C)cc13)nn2-c1ccc(N2CCC(C(=O)O)CC2)nc1 [Example #70, 1-(5-{2′,5,7-trimethyl-1H,2′H-[3,4′-biindazol]-1-yl}pyridin-2-yl)piperidine-4-carboxylic acid] |  | 18 ×10⁻⁶ cm/s | 1.2 | 74 µg/mL (≈ 154 µM) | 16100 nM |  |  |  | 
3 | Cc1cccc2c(-c3cccc4c3OCO4)nn(-c3ccc(N4CC5C(C4)C5C(=O)O)nc3)c12 (stereo not drawn) [compound 30, 3-(5-[3-(2H-1,3-benzodi-oxol-4-yl)-7-methyl-1H-in-dazol-1-yl]pyridin-2-yl}-3-azabicyclo[3.1.0]hexane-6-carboxylic acid] |  | 14 ×10⁻⁶ cm/s | 0.9 | 42 µg/mL (≈ 92.4 µM) | 6100 nM |  |  |  | 20 K
4 | COc1cccc2c(-c3cccc4nn(C)cc34)nn(-c3ccc(N4CC5C(C4)C5C(=O)O)nc3)c12 (stereo not drawn) [compound 29, 3-(5-{7-methoxy-2′-methyl-1H,2′H-[3,4′-biindazol]-1-yl}pyridin-2-yl)-3-azabicyclo[3.1.0]hex-ane-6-carboxylic acid] | 200 nM |  |  | 63 µg/mL (≈ 131 µM) | 800 nM | 600 nM | 600 nM | 700 nM | 22 K
5 | Cc1cccc2c(-c3cccc4nn(C)cc34)nn(-c3ccc(N4CCN(CC(=O)O)C(=O)C4)nc3)c12 [compound 58, 2-[4-(5-{2′,7-dimethyl-1H,2′H-[3,4′-biindazol]-1-yl}pyridin-2-yl)-2-oxopi-perazin-1-yl]acetic acid] |  |  |  | 84 µg/mL (≈ 170 µM) | 6800 nM |  |  |  | 23 K
6 | Cc1cccc2c(-c3cccc4nn(C)cc34)nn(-c3ccc(N4CCC(c5nn[nH]n5)CC4)nc3)c12 [Example #19, 2′,7-dimethyl-1-{6-[4-(2H-1,2,3,4-tetrazol-5-yl)piperi-din-1-yl]pyridin-3-yl}-1H,2′H-3,4′-biindazole] |  |  |  | 51 µg/mL (≈ 104 µM) | 6500 nM |  |  |  | 21 K
7 | Cc1c(CO)ccc2c(-c3cccc4nn(C)cc34)nn(-c3ccc(N4CC5C(C4)C5C(=O)O)nc3)c12 (stereo not drawn) [compound 71, 3-{5-[6-(hydroxymethyl)-2′,7-dimethyl-1H,2′H-[3,4′-biindazol]-1-yl]pyri-din-2-yl}-3-azabicy-clo[3.1.0]hexane-6-car-boxylic acid] |  |  |  | 67 µg/mL (≈ 135 µM) | 600 nM |  |  |  | 29 K
8 | Cc1c(-c2cnn(C)c2)ccc2c(-c3cccc4nn(C)cc34)nn(-c3ccc(N4CC5C(C4)C5C(=O)O)nc3)c12 (stereo not drawn) [Example #28, 3-{5-[2′,7-dimethyl-6-(1-methyl-1H-pyrazol-4-yl)-1H,2′H-[3,4′-biindazol]-1-yl]pyridin-2-yl}-3-azabicy-clo[3.1.0]hexane-6-carbox-ylic acid] |  |  |  | 87 µg/mL (≈ 160 µM) | 80 nM |  |  |  | 27 K
9 | Cn1cc2c(-c3nn(-c4ccc(N5CC6C(C5)C6C(=O)O)nc4)c4c(Cl)cccc34)cccc2n1 (stereo not drawn) [compound 26, 3-(5-{7-chloro-2′-methyl-1H,2′H-[3,4′-biindazol]-1-yl}pyridin-2-yl)-3-azabicy-clo[3.1.0]hexane-6-carbox-ylic acid] | 200 nM |  |  | 60 µg/mL (≈ 124 µM) | 900 nM | 200 nM | 600 nM | 700 nM | 
10 | Cc1cccc2c(-c3cccc4cnccc34)nn(-c3ccc(N4CCC(C(=O)O)CC4)nc3)c12 [compound 62, 1-{5-[3-(isoquinolin-5-yl)-7-methyl-1H-indazol-1-yl]pyridin-2-yl}piperidine-4-carboxylic acid] |  | 11 ×10⁻⁶ cm/s | 1.2 | 49 µg/mL (≈ 106 µM) | 3100 nM |  |  |  | 20 K
11 | Cc1cccc2c(-c3cccc4cnc(N(C)C)cc34)nn(-c3ccc(N4CCC(C(=O)O)CC4)nc3)c12 [Example #63, 1-(5-{3-[3-(dimethyla-mino)isoquinolin-5-yl]-7-methyl-1H-indazol-1-yl}pyridin-2-yl)piperidine-4-carboxylic acid] |  | 19 ×10⁻⁶ cm/s | 0.6 | 75 µg/mL (≈ 148 µM) | 4900 nM |  |  |  | 19 K
12 | Cc1cccc2c(-c3cccc4nn(C)cc34)nn(-c3ccc(N4CCC(S(C)(=O)=O)CC4)nc3)c12 [compound 18, 1-[6-(4-methanesulfonylpi-peridin-1-yl)pyridin-3-yl]-2′,7-dimethyl-1H,2′H-3,4′-biindazole] | 200 nM | 36 ×10⁻⁶ cm/s | 0.3 |  | 700 nM | 200 nM | 700 nM | 600 nM | 22 K
